Experimental data as given in patent US11160871B2, “SSTR-targeted conjugates and particles and formulations thereof” (TARVEDA THERAPEUTICS, INC., priority 2015, dated 2021).

Experiments:
[1] = tested on: MCF-7 breast cancer cells; assay: MCF-7 cell proliferation; format: cell-based
Procedure: In an in vitro study, Conjugate 57 is given to MCF-7 breast cancer cells. Cell proliferation of the MCF-7 cells are measured.

[2] = tested on: panel of GPCRs (119 targets); assay: Off-target binding to a panel of GPCRs; conditions: 1 uM concentration
Procedure: To further study the off-target binding of Conjugate 57, the binding of Conjugate 57 to a panel of GPCRs (119 targets) was measured at 1 uM concentration. Conjugate 57 has no activity against the panel of GPCRs.

[3] = tested on: H69 tumors; assay: H69 model tumor growth inhibition; format: in vivo
[4] = tested on: HCC-33 (small cell lung cancer) xenograft; assay: HCC-33 xenograft, multiple dose regimens (Example 17); format: in vivo
Procedure: HCC-33 (small cell lung cancer) xenograft was chosen to study efficacy of Conjugate 57. In some groups, Conjugate 57 was given at 1.0 mg/kg, 0.5 mg/kg or 0.33 mg/kg every week for 30 days, a total of four doses for each animal. In some other groups, Conjugate 57 was also given at 0.5 mg/kg or 0.25 mg/kg twice a week for 30 days, a total of 8 total doses for each animal.

[5] = tested on: NIC-H524 tumor xenograft model (SSTR2 expressing); assay: Dose response study in NIC-H524 tumor xenograft model; format: in vivo
Procedure: A dose response study was carried out in NIC-H524 tumor xenograft model (SSTR2 expressing) with a single dose of Conjugate 57. Doses evaluated were 0.5 mg/kg, 1.0 mg/kg, and 2.0 mg/kg.

[6] = tested on: NCI-H69 SCLC tumors; assay: H69 tumor DM-1 levels by LC/MS-MS; format: in vivo, mice; conditions: 1 mg/kg; 24 hour time point
Procedure: To examine the ability of conjugates of the present invention to accumulate in tumors, a murine cancer model was used. All mice were treated in accordance with the OLAW Public Health Service Policy on Human Care and Use of Laboratory Animals and the ILAR Guide for the Care and Use of Laboratory Animals. All in vivo studies were conducted following the protocols approved by the Blend Therapeutics Institutional Animal Care and Use Committee. Animals were inoculated with 2.5×10^6 NCI-H69 SCLC (small cell lung cancer) cells in 1:1 RPMI 1640 (Invitrogen, Carlsbad, Calif.)/Matrigel® (BD Biosciences, San Jose, Calif.) via subcutaneous injection to the right flank. Tumors were allowed to reach an approximate volume of ˜500 mm3. Animals were then randomized into treatment groups of 3 animals per time point and were dosed at 1 mg/kg (10% propylene glycol in water for injection for free conjugates, or 10% sucrose for nanoparticles), or 0.4 mg/kg for DM-1 (10% propylene glycol in water for injection). The 24 hour time point was used as a benchmark across conjugates.
Tumor DM-1 levels were determined by liquid chromatography mass spectrometry (LC/MS-MS). Four volumes of 5 mM 6-maleimidohexanoic acid to 1 part tumor v/w was added and homogenized for about 10-15 seconds with a handheld homogenizer. 10 μL of 500 mM Tris(2-carboxyethyl)phosphine was added to 100 uL of tumor homogenate, mixed well and incubated at room temperature for about 5-15 min. 200-300 uL of acetonitrile was used to precipitate proteins in tumor homogenate, samples were centrifuged for 5 min, and supernatant was injected onto LC/MS-MS system for DM-1 analysis.

[7] = Single dose exploratory toxicity study; format: in vivo, SD female rat
Procedure: Single dose exploratory toxicity studies in SD female rat (dose 0.5 mg/kg to 1.5 mg/kg) for 7-10 days were carried out. Clinical observations, body weight, clinical blood chemistry, histopathology, and complete blood counts were assessed. In the 10-day study, DM1 (0.4 mg/kg) was compared to Conjugate 57 at an equivalent dose of DM1 (1.0 mg/kg of conjugate) and at a 50% higher dose (1.5 mg/kg of conjugate).
Decreased white blood cell (WBC) count is a known dose limiting toxicity of DM1. WBC count was tracked in all groups.
Liver toxicity is also a know dose limiting toxicity of DM1. Alanine transaminase (ALT) and aspartate aminotransferase (AST) are markers of liver toxicity and were measured in all groups.

[8] = 0.25 mg/kg 2x/wk, 8 total doses
[9] = 0.33 mg/kg every week, four doses
[10] = 0.5 mg/kg every week, four doses
[11] = 1.0 mg/kg every week, four doses
[12] = single dose 0.5, 1.0 and 2.0 mg/kg

For `COc1cc2cc(c1Cl)N(C)C(=O)C[C@H](OC(=O)[C@H](C)N(C)C(=O)CCSSC[C@H](NC(=O)[C@@H]1CSSC[C@H](NC(=O)[C@H](N)Cc3ccccc3)C(=O)N[C@@H](Cc3ccc(O)cc3)C(=O)N[C@H](Cc3c[nH]c4ccccc34)C(=O)N[C@@H](CCCCN)C(=O)N[C@@H]([C@@H](C)O)C(=O)N1)C(N)=O)[C@]1(C)O[C@H]1[C@H](C)[C@@H]1C[C@@](O)(NC(=O)O1)[C@H](OC)/C=C/C=C(\C)C2` [Conjugate 57], the “proliferation of MCF-7 cells” value [1] was “reduces the proliferation of MCF-7 cells”, the “activity against the panel of GPCRs” value [2] was “no activity” and the “TGI % Day 8” value ([3]; Conjugate 57 1 mg/kg) was 50.1%. The “TGI % Day 11” value ([3]; Conjugate 57 1 mg/kg) was 61.4%, the “TGI % Day 14” value ([3]; Conjugate 57 1 mg/kg) was 60.4% and the “TGI % Day 19” value ([3]; Conjugate 57 1 mg/kg) was 63%. The “TGI % Day 22” value ([3]; Conjugate 57 1 mg/kg) was 58.4%, the “TGI % Day 8” value ([3]; Conjugate 57 2 mg/kg) was 63.8% and the “TGI % Day 11” value ([3]; Conjugate 57 2 mg/kg) was 82.8%. For the same molecule, the “TGI % Day 14” value ([3]; Conjugate 57 2 mg/kg) was 87.9%, the “TGI % Day 19” value ([3]; Conjugate 57 2 mg/kg) was 95.5% and the “TGI % Day 22” value ([3]; Conjugate 57 2 mg/kg) was 97.8%. The “TGI % Day 4” value [4, 8] was −12.5%, the “TGI % Day 8” value [4, 8] was 50.4% and the “TGI % Day 11” value [4, 8] was 67.3%. The “TGI % Day 15” value [4, 8] was 85.8%, the “TGI % Day 18” value [4, 8] was 92.3% and the “TGI % Day 22” value [4, 8] was 95.8%. For the same molecule, the “TGI % Day 25” value [4, 8] was 97.2%, the “TGI % Day 29” value [4, 8] was 97.8% and the “TGI % Day 4” value [4, 9] was 2.1%. The “TGI % Day 8” value [4, 9] was 34.2%, the “TGI % Day 11” value [4, 9] was 48% and the “TGI % Day 15” value [4, 9] was 62.4%. The “TGI % Day 18” value [4, 9] was 73.8%, the “TGI % Day 22” value [4, 9] was 79% and the “TGI % Day 25” value [4, 9] was 83.4%. For the same molecule, the “TGI % Day 29” value [4, 9] was 78.5%, the “TGI % Day 4” value ([4]; 0.5 mg/kg 2x/wk, 8 total doses) was 0.5% and the “TGI % Day 8” value ([4]; 0.5 mg/kg 2x/wk, 8 total doses) was 61.6%. The “TGI % Day 11” value ([4]; 0.5 mg/kg 2x/wk, 8 total doses) was 78.3%, the “TGI % Day 15” value ([4]; 0.5 mg/kg 2x/wk, 8 total doses) was 91.8% and the “TGI % Day 18” value ([4]; 0.5 mg/kg 2x/wk, 8 total doses) was 96.2%. For the same molecule, the “TGI % Day 22” value ([4]; 0.5 mg/kg 2x/wk, 8 total doses) was 97.6%, the “TGI % Day 25” value ([4]; 0.5 mg/kg 2x/wk, 8 total doses) was 99.1% and the “TGI % Day 29” value ([4]; 0.5 mg/kg 2x/wk, 8 total doses) was 99.2%. For the same molecule, the “TGI % Day 4” value [4, 10] was 1.6%, the “TGI % Day 8” value [4, 10] was 60.3% and the “TGI % Day 11” value [4, 10] was 68.8%. The “TGI % Day 15” value [4, 10] was 82.7%, the “TGI % Day 18” value [4, 10] was 87.1% and the “TGI % Day 22” value [4, 10] was 91.1%. The “TGI % Day 25” value [4, 10] was 93.6%, the “TGI % Day 29” value [4, 10] was 89.5% and the “TGI % Day 4” value [4, 11] was 25.8%. For the same molecule, the “TGI % Day 8” value [4, 11] was 69.9%, the “TGI % Day 11” value [4, 11] was 84.4% and the “TGI % Day 15” value [4, 11] was 93.6%. For the same molecule, the “TGI % Day 18” value [4, 11] was 97.4%, the “TGI % Day 22” value [4, 11] was 99.2% and the “TGI % Day 25” value [4, 11] was 99.8%. The “TGI % Day 29” value [4, 11] was 99.7%, the “tolerability of multiple doses” value ([4]; all regimens) was “well tolerated” and the “dose response (tumor volume)” value [5, 12] was “clear dose response”. The “tolerability (body weight change)” value [5, 12] was “all doses are well-tolerated”, the “tumor response (tumor volume)” value ([5]; single dose of 2 mg/kg) was “significant regression” and the “H69 tumor DM-1 levels” value [6] was 243 nM. The “AST and ALT” value ([7]; 1.0 mg/kg) was “no effects on AST and ALT”, the “Day 5 weight change (%)” value ([7]; 1.0 mg/kg) was −0.73% and the “Day 10 weight change (%)” value ([7]; 1.0 mg/kg) was “+1.8%”. The “complete blood count (CBC) and WBC count” value ([7]; 1.0 mg/kg and […]) was “no significant changes in complete blood count (CBC) and WBC count” and the tolerability ([7]; 1.0 and […] versus DM1 0.4 mg/kg, 10-day study) was “significantly improved tolerability versus DM1”.
